Like-named read-outs stand apart in the source and are kept apart here.
Assays:
[1] = tested on: WI-38 cells; test: CdCl2 (cadmium) resistance assay; type: cell-based, human; conditions: for fold induction at 10 µM: Homo sapiens, 12 h, normalized ATP measurement; for Assay 4: H2O2- & Cd-resistant / Assay 2: Cadmium-resistant: YES/NO; for Assay 2: Cadmium-resistant: * indicates partial
In short: (§1)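 Resistance to CdCl2 or MMS stress (12 h exposure) was scored in WI-38 fibroblasts pretreated with compound at 0.25–20 μM final, five doses, technical triplicates. MMS plates had compound added 24 h before MMS, after a shift to serum-free DMEM+2% BSA. Significance came from a global variance t-test over two independent runs.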

[2] = tested on: phosphorylated γH2A.X and TP53BP1; test: DNA damage marker analysis (immuno-staining); conditions: for activity at 10 µM: Homo sapiens, WI-38, 24 h
Experimental: WI-38 cells were seeded on 96-well plates and cultured for 24 hrs and then incubated with small molecules for another 24 hrs. As the positive control to damage DNA, H2O2 was supplemented at 700 μM final concentration for the last 3 hrs. Cells were washed with phosphate-buffered saline (PBS), fixed with 4% paraformaldehyde and then blocked with 5% normal goat serum (Cell Signaling), plus 0.3% Triton X-100, for 1 hr. Primary antibody cocktail (rabbit anti-phospho-histone γH2A.X (Ser-139), 1:100; anti-phospho-TP53BP1 (Ser-1778), 1:100), prepared in 1% BSA and 0.3% Triton X-100/PBS, was then introduced and incubated overnight at 4 C. Next day, samples were washed with PBS and further incubated with fluorophore-conjugated secondary antibody (1:1,000) for 1 hr in the dark. Samples were then washed and incubated with DAPI dye (Life Technologies) (4 μg/ml final concentration) for the last 10 minutes. Images were collected on an INCell Analyzer 2000 (GE) and analyzed with the Developer software.
WI-38 cells were seeded (˜8,000 cells per well) on 96-well plates and cultured for 24 hrs and then incubated with small molecules for another 24 hrs. Doxorubicin (300 nM, 24 hrs) and H2O2 (700 μM, 3 hrs) were also introduced as the positive controls to damage DNA. Cells were washed with phosphate-buffered saline (PBS), fixed with 4% paraformaldehyde for 30 min and then blocked with 5% normal goat serum (Cell Signaling) and 0.3% Triton X-100 for 1 hr. Primary antibody cocktail (Cell Signaling, rabbit anti-phospho-histone γH2A.X (Ser-139), 1:100; anti-phospho-TP53BP1 (Ser-1778), 1:100) was prepared in PBS with 1% BSA and 0.3% Triton X-100 and incubated overnight at 4° C. Next day, samples were washed with PBS and further incubated with fluorophore-conjugated secondary antibody (1:1,000) for 1 hr in dark. Samples were then washed and incubated with DAPI dye (Life Technologies) (4 μg/ml final concentration) for 30 minutes. Images were collected on the INCell Analyzer 2000 (10× objective) and analyzed with the Developer Toolbox.

[3] = tested on: C. elegans; test: C. elegans lifespan assays (liquid and plate); type: in vivo, Caenorhabditis elegans; conditions: for ILS at 60 µM / ILS at 66 µM: Caenorhabditis elegans; for Extension of C. elegans' lifespan (qualitative): in at least 3 to 4 trials, group range ~10% to ~50%; for O = Life span- extending scores in worms: score scale 0 to 2, 4 to 6 independent trials; for M = Lifespan-extending scores in worms: summary score
[4] = biological target: T1, human PARP1 (Homo sapiens, UniProt P09874); test: PARP inhibitor assay (HT Fluorescent Homogeneous PARP Inhibition Assay Kit); type: biochemical; conditions: score
T1 construct: purchased Trevigen
T1 sequence (P09874 whole entry): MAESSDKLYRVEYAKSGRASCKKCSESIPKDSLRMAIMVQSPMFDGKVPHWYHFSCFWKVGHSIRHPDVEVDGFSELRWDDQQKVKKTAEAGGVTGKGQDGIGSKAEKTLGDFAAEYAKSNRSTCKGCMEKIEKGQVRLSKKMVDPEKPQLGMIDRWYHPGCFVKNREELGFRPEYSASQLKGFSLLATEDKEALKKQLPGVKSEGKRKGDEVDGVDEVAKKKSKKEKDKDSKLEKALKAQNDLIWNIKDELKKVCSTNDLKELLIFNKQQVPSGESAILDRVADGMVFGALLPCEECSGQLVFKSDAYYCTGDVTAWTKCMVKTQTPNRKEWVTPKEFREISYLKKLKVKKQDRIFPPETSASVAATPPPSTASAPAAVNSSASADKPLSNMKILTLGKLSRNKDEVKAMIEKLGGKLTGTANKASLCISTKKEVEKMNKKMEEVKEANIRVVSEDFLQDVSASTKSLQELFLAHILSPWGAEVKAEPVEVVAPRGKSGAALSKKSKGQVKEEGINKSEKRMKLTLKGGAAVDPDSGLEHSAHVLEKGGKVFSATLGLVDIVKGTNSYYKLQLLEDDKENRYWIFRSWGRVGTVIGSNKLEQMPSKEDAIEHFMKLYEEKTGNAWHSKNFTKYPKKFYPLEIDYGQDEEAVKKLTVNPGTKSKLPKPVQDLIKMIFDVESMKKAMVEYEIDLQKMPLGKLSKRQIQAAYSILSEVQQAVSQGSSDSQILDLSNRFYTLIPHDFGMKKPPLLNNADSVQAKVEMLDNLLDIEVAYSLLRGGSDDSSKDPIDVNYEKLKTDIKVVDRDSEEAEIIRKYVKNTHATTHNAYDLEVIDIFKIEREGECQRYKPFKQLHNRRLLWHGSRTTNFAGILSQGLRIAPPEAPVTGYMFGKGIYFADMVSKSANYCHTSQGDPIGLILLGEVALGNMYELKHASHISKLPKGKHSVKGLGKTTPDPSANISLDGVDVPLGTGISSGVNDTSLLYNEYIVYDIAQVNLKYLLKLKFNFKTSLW
Experimental: (§2) The assay was performed with the HT Fluorescent Homogeneous PARP Inhibition Assay Kit (Trevigen), following manufacturer's instructions. Briefly, nicotinamide adenine dinucleotide, human PARP1 and activated-DNA solution was added onto a 96-well plate. 54 repurchased small molecules, at 10 μM final concentration, were introduced onto the 96-well assay plate and incubated in a humid chamber at room temperature for 30 min in dark. Cycling mixture, with resazurin and cycling enzyme diaphorase, was then added and incubated further for 1 hr in dark. Reaction was terminated by adding the stopping buffer.
as §2, with “(Trevegen),” for “(Trevigen),”, “stopped” for “terminated”

[5] = tested on: WI-38 cells; test: MMS resistance assay; type: cell-based, human; conditions: for fold induction at 10 µM: Homo sapiens, 12 h, normalized ATP measurement; for Assay 3: MMS-resistant / Assay 5: Triple resistant: YES/NO; for Assay 3: MMS-resistant: * indicates partial; for Assay 5: Triple resistant: H2O2, cadmium and MMS
In short: as §1

[6] = Exp. 1, WI-38 cells, read-out: Exp. 1, under Cd2Cl2 stress treatment, at 10 uM (fold change)
[7] = Exp. 2, WI-38 cells, read-out: Exp. 2, under Cd2Cl2 stress treatment, at 10 uM (fold change)
[8] = score in summary of 38 core set hits
[9] = read-out: Experiment 1, H2A.X-P DNA damage foci staining (no H2O2 stress treatment), at 10 uM
[10] = read-out: Experiment 2, H2A.X-P DNA damage foci staining (no H2O2 stress treatment), at 10 uM
[11] = read-out: Experiment 2, H2A.X-P DNA damage foci staining (under H2O2 stress treatment), at 10 uM
[12] = read-out: Experiment 2, TP53BP1-P DNA damage foci staining (no H2O2 stress treatment), at 10 uM
[13] = read-out: Experiment 2, TP53BP1-P DNA damage foci staining (under H2O2 stress treatment), at 10 uM
[14] = 60 μM, in liquid, wild type, with FuDR, 1.0 × 10^9 bacteria/ml, read-out: relative change of mean lifespan vs control, Trial 1
[15] = 60 μM, in liquid, wild type, with FuDR, 2.5 × 10^9 bacteria/ml, read-out: relative change of mean lifespan vs control, Trial 2
[16] = 60 μM, on plate, CF512 temperature-sensitive sterile animals, without FuDR, 1.0 × 10^11 bacteria/ml, read-out: relative change of mean lifespan vs control, Trial 4
[17] = 60 μM, on plate, CF512 temperature-sensitive sterile animals, without FuDR, 2.0 × 10^10 bacteria/ml, read-out: relative change of mean lifespan vs control, Trial 3
[18] = Assay 2(z), 1.0 × 10^9 bacteria/ml, wild type + FuDR (2012 July), read-out: Lifespan assay in liquid
[19] = Assay 3(aa), 2.5 × 10^9 bacteria/ml, wild type + FuDR, read-out: Lifespan assay in liquid
[20] = Assay 4(ab), 2.0 × 10^10 bacteria/ml, CF512 worms, no FuDR, read-out: Lifespan assay on plates
[21] = Assay 5(ac), 1.0 × 10^11 bacteria/ml, CF512 worms, no FuDR, read-out: Lifespan assay on plates
[22] = Exp. 1, WI-38 cells, read-out: Exp. 1, under MMS stress treatment, at 10 uM (fold change)
[23] = Exp. 2, WI-38 cells, read-out: Exp. 2, under MMS stress treatment, at 10 uM (fold change)

Structure (SMILES) | fold induction at 10 µM [1, 6] | fold induction at 10 µM [1, 7] | A = Cadmium resistant [1, 8] | A = Cadmium resistant ([1]; summary score) | C = H2O2- & Cd-resistant ([1]; summary score) | activity at 10 µM [2, 9] [%] | activity at 10 µM [2, 10] [%] | activity at 10 µM [2, 11] [%] | activity at 10 µM [2, 12] [%] | activity at 10 µM [2, 13] [%] | ILS at 60 µM [3, 14] [%] | ILS at 60 µM [3, 15] [%] | ILS at 60 µM [3, 17] [%] | ILS at 66 µM [3, 18] [%] | ILS at 66 µM [3, 19] [%] | ILS at 66 µM [3, 20] [%] | O = Life span- extending scores in worms [3] | M = Lifespan-extending scores in worms [3] | L = PARP inhibition [4] | fold induction at 10 µM [5, 22] | also measured
O=C(NCc1cccnc1)/C(=C\c1cccc(Oc2ccccc2)c1)S(=O)(=O)c1ccccc1 [Gr-7A] | 0.07 | 0.14 | 0 | 1 | 1 | 337 | 246 | 113 | 363 | 516 | 40.6 | 16.2 | 13.9 | 40.6 | 16.2 | 13.9 | 2 (2 for observed in more than 2 trials) | 2 (2 for observed in more than 2 trials) | 0 | 0.96 | Assay 4: H2O2- & Cd-resistant [1]: YES; Assay 2: Cadmium-resistant [1]: YES; P = Potential DNA-damaging ([2]; human, 24 h): 0; R = Potential DNA damaging ([2]; human, 24 h): 0; ILS at 60 µM [3, 16]: 2.7%; ILS at 66 µM [3, 21]: 2.7%; Extension of C. elegans' lifespan (qualitative) [3]: could extend animal's lifespan; fold induction at 10 µM [5, 23]: 2.21; B = MMS resistant [5, 8]: 0; B = MMS resistant ([5]; summary score): 0; D = Triple resistant ([5]; summary score): 0
Cc1cc(C)c(C(=O)/C=C/c2ccccc2F)c(O)n1 [O18] | 1.5 | 1.24 | 0 | 1 | 1 | 364 | 143 | 137 | 183 | 450 | 22.1 | 11.8 | 3.8 | 22.1 | 11.8 | 3.8 | 1 (1 for lifespan extension observed in 2 trials) | 1 (1 for lifespan extension observed in 2 trials) | 0 | 1.11 | Assay 4: H2O2- & Cd-resistant [1]: YES; Assay 2: Cadmium-resistant [1]: YES; P = Potential DNA-damaging ([2]; human, 24 h): 0; R = Potential DNA damaging ([2]; human, 24 h): 0; fold induction at 10 µM [5, 23]: 1.48; Assay 3: MMS-resistant [5]: YES; Assay 5: Triple resistant [5]: YES; B = MMS resistant [5, 8]: 0; B = MMS resistant ([5]; summary score): 1; D = Triple resistant ([5]; summary score): 2
[O-][n+]1onc2c3nsnc3c(Br)cc21 [O17] | 0.95 | 1.35 | 0 | 0 | 0 | 96.7 | 72.1 | 129 | 148 | 349 | 1.7 | 22.6 | 19.7 | 1.7 | 22.6 | 19.7 | 2 (2 for observed in more than 2 trials) | 2 (2 for observed in more than 2 trials) | 0 | 0.86 | P = Potential DNA-damaging ([2]; human, 24 h): 0; R = Potential DNA damaging ([2]; human, 24 h): 0; relative change of mean lifespan vs control, Trial 6 (confirmative) ([3]; 60 μM, on plate, temperature-sensitive sterile animals, without FuDR, 1.0 × 10^11 bacteria/ml): +20.8%; relative change of mean lifespan vs control, Trial 5 (confirmative) ([3]; 60 μM, on plate, temperature-sensitive sterile animals, without FuDR, 2.0 × 10^10 bacteria/ml): +15.2%; ILS at 60 µM [3, 16]: 17.8%; ILS at 66 µM [3, 21]: 17.8%; ILS at 66 µM ([3]; Assay 6(ad), 2.0 × 10^10 bacteria/ml, CF512 worms, no FuDR, read-out: Lifespan assay on plates): 15.2%; ILS at 66 µM ([3]; Assay 7(ae), 1.0 × 10^11 bacteria/ml, CF512 worms, no FuDR, read-out: Lifespan assay on plates): 20.8%; Extension of C. elegans' lifespan (qualitative) [3]: could extend animal's lifespan; fold induction at 10 µM [5, 23]: 5.33; B = MMS resistant [5, 8]: 0; B = MMS resistant ([5]; summary score): 0; D = Triple resistant ([5]; summary score): 0
COc1ccc(C(=O)/C=C/c2ccccc2Br)c(OC)c1 [Gr-4B] | 2 | 1.52 | 1 | 1 | 1 | 116 | 140 | 150 | 118 | 435 | 8.1 | 14.5 | 10.7 | 8.1 | 14.5 | 10.7 | 1 (1 for lifespan extension observed in 2 trials) | 1 (1 for lifespan extension observed in 2 trials) | 0 | 1.22 | CdCl2-resistant [1]: YES; H2O2- & CdCl2-resistant [1]: YES; CdCl2-resistant ([1]; WI-38 cells, 10 μM): YES; H2O2- & CdCl2-resistant ([1]; WI-38 cells, 10 μM, both stressors): YES; Assay 4: H2O2- & Cd-resistant [1]: YES; Assay 2: Cadmium-resistant [1]: YES; R = Potential DNA damaging ([2]; negative point, cultured human cells): 0; P = Potential DNA-damaging ([2]; summary score): 0; fold induction at 10 µM [5, 23]: 1.54; Assay 3: MMS-resistant [5]: YES; Assay 5: Triple resistant [5]: YES; B = MMS resistant [5, 8]: 0; B = MMS resistant ([5]; summary score): 1; D = Triple resistant ([5]; summary score): 2

Source: patent US11413278B2, “Compounds and methods for promoting stress resistance” (priority 2015, dated 2022)
